{"source": "patent US20170112787A1", "about": "“METHODS OF TREATMENT OF INFLAMMATION OF THE GUT” (THE UNIVERSITY OF CONNECTICUT, priority 2015, published 2017)", "key": {"siLP CX3CR1hi Mφ": {"system": "siLP CX3CR1hi Mφ", "assay": "Oral gavage; frequency of siLP CX3CR1hi Mφ and CX3CR1lo cells by flow cytometry", "format": "in vivo, mouse", "description": "Mice: C57BL/6, NOD/Lt, VR1^−/− (also known as TRPV1^−/−), IL27RA^−/− (also known as WSX-1^−/−) and CX3CR1^gfp/gfp, were obtained from the Jackson Laboratory (Bar Harbor, Me.). IL10-GFP reporter (Vert-X) mice were a kind gift from Dr. Roger S Thrall. All animals except NOD/Lt were on a C57BL/6 background. CX3CR1^gfp/gfp were crossed with C57BL/6 mice to obtain CX3CR1^gfp/+ mice. CX3CR1^gfp/gfp mice were backcrossed with VR1^−/− to obtain CX3CR1^gfp/+ VR1^−/− mice. IL27RA^−/− mice were backcrossed with C57BL/6 mice to obtain IL27RA^+/− mice. All animals were housed in the Center for Comparative Medicine at UConn Health. All experiments were conducted under the guidelines approved by the UConn Health Animal Care Committee.\n(§1) Cell isolation: The siLP cells were isolated as per protocols known in the art. In brief, small intestines were removed from the mice, luminal contents were flushed with cold HBSS (Invitrogen, Carlsbad, Calif., USA) with 5% FBS, opened longitudinally after removing Peyer's patches and cut in to small pieces. The epithelial cells were removed by incubation with HBSS containing 1.3 mM EDTA (Invitrogen, Carlsbad, Calif., USA), 1mM HEPES (Invitrogen, Carlsbad, Calif., USA) and 0.77 mM DTT (Sigma, St. Louis, Mo., USA) at 37° C. shaking at 350 rpm. The intestinal pieces were then washed with PBS (Invitrogen, Carlsbad, Calif., USA) and digested in 100 units/ml collagenase IV (Sigma, St. Louis, Mo., USA) at 37° C. shaking at 550 rpm. Leukocytes were enriched using percoll (GE Healthcare, Piscataway, N.J., USA) gradient. The PLN, MLN and splenic cells were isolated by gently crushing the organs through 70 μm cell strainer (BD Falcon, Franklin, N.J., USA). Splenocytes were incubated with ACK lysing buffer (Invitrogen, N.Y., USA) to eliminate red blood cells for 3 mins at 37° C. and washed twice with PBS.\n(§2) Flow cytometry: Fluorescently labeled antibodies used for surface staining included: CD11b (M1/70), CD11 c (N418), CX3CR1 (polyclonal), CD103 (2E7), CD64 (X54-5/7.1), MHCII (M5/114.15.2), B220 (RA3-6B2), CD3 (145-2C11), CD4 (RM4-5), CD25 (PC61) and CD62L (ME2-14) and those used for intracellular staining include: VR1 (polyclonal) IL10 (JESS-16E3), TNFα (MP6-XT22), IFNγ (XMG1.2), and IL17A (TC11-18H10.1). For detection of CB2, primary antibody against CB2 (polyclonal) was used followed by fluorescently labeled secondary antibody. All were purchased from Biolegend San Diego, Calif., USA except for TNFα (Becton Dickinson, San Jose, Calif., USA), CX3CR1 (R&D Minneapolis, Minn., USA), VR1 (Thermo Scientific, Rockford, Ill. USA), IL10 (eBioscience, San Diego Calif., USA) and CB2 (Thermo Scientific, Rockford, Ill. USA). Cells were acquired with a LSRII flow cytometer (Becton Dickinson, San Jose, Calif., USA) or sorted with a FACSAria™ machine (Becton Dickinson, San Jose, Calif., USA). Flow cytometry analysis was done with the FlowJo Version 9.7.6 (Tree Star, Ashland, Oreg,).\n(§3) Oral administration of CP, AEA and PF3845: Mice were anesthetized with intraperitoneal injection of ketamine (2 mg/kg) and xylazine (0.1 mg/kg). Vehicle control (tween 80 (5%), […] in PBS) or CP (10 μg) (ENZO Life Sciences, Farmingdale, N.Y., USA) or AEA (250 μg, 400 μg or 500 μg) (Cayman Chemical Co., Ann Arbor, Mich., USA) or PF3845 (5 mg/kg) (Cayman Chemical Co., Ann Arbor, Mich., USA) were gavaged in 100 μl volume using an 18-gauge feeding needle (Popper & Sons, New Hyde Park, N.Y., USA)."}, "IL27-p28": {"system": "IL27-p28", "assay": "qPCR of IL27-p28 in sorted siLP MNPs after oral gavage", "format": "in vivo, mouse", "conditions": "two days after treatment, with respect to vehicle", "description": "as §3\nqPCR: Total RNA was isolated from sorted siLP MNP using the RNeasy® Micro kit Oaten, Chatsworth, Calif., USA). cDNA was made from total RNA using iSCRIPT™ cDNA synthesis kit (Bio-Rad Laboratories, Hercules, Calif.). IL-27 gene expression was measured using IL-27 TactMan® Gene Expression Assay (Life technologies, Grand Island, N.Y., USA) and CFX96™ Real-Time PCR detection system (Bio-Rad Laboratories, Hercules, Calif., USA). Gene expression was normalized to GAPDH."}, "[1]": {"system": "Type 1 Diabetes in NOD mice", "assay": "Adoptive transfer of CD4+ T cells from treated NOD donors; diabetes development by urine glucose", "format": "in vivo, mouse", "conditions": "CD4+ T cells from PLN and spleen of treated female NOD donors, vs vehicle elicited cells", "description": "Adoptive transfer: Female NOD mice were orally gavaged with CP 10 μg or vehicle at 9 and 10 weeks of age as described earlier. 2 weeks later CD4^+ T cells were sorted from the PLN and spleen of the treated mice. All recipient female NOD mice were sub-lethally irradiated. Four hours after irradiation the recipient mice received […] diabetogenic splenocytes. 7×10^6 sorted CD4^+ T cells were then transferred to naïve NOD female mice by retro-orbital injection at 11 weeks of age. Development of diabetes was monitored by measuring urine glucose using Diastix® reagent strips (Bayer, Elkhart, Ind., USA). Mice were considered diabetic after two consecutive readings of >1000 mg/dl of urine glucose."}, "[2]": {"system": "naïve splenic CD4+ T cells", "assay": "In vitro co-culture of siLP MNPs sorted from treated mice with naïve splenic CD4+ T cells", "format": "cell-based, mouse", "description": "(§4) Intracellular cytokine staining: Cells were incubated with PMA (50 ng/ml) (Sigma Co., St. Luis, Mo., USA) plus ionomycin (1 μg/ml) (Sigma Co., St. Luis, Mo., USA) in the presence of golgi plug (BD Biosciences, San Jose, USA) for 5 hours at 37° C. followed by surface staining with fluorochrome conjugated antibodies and then intracellular staining of IL10, TNFα, IFNγ, and IL17A was performed by fixation and permeabilization according to manufacturer's protocol BD Cytofix/Cytoperm™ kit.\nIn vitro co-culture assays: For in vitro co-culture assays, siLP MNPs were sorted as described previously from C57BL/6 or CX3CR1^gfp/+ mice. MNPs (10×10^4) were cocultured for 4 days with splenic naïve CD25^− CD62L^hi CD4^±T cells sorted from untreated C57BL/6 or IL27Ra^−/− mice at 1:1 ratios in the presence of soluble αCD3 mAb (145-2C11) (0.5 μg/ml) in U-bottomed 96 well plates. The cultured cells were maintained in RPMI 1640 medium supplemented with 5% fetal bovine serum, 1 mM sodium pyruvate, 1 mM non-essential amino acids, 2 mM L-gluatamine, 50 units/ml streptomycin, and 50 μM Beta-mercaptoethanol, all purchased from Gibco/Invitrogen (Carlsbad, Calif., USA). After 4 days, the cultured cells were washed with PBS and surface stained with CD4 and intracellular staining was performed for IL10 and IFN-γ.\nas §3"}, "[3]": {"system": "CD4+IL10+IFN-γ+ Tr1 cells", "assay": "Oral gavage; frequency of CD4+IL10+IFN-γ+ Tr1 cells and IL17A+ CD4+ T cells in siLP and PLN", "format": "in vivo, mouse", "description": "as §1, §2, §4, §3\nWe now tested if CP can elicit such regulatory T cells in vivo. NOD mice were orally gavaged twice at 9th and 10th week of age with 10 μg CP or vehicle as a control; two weeks post CP treatment, siLP and the PLN were harvested and the frequency of CD4+IL10+IFN-γ+ Tr1 cells was measured."}, "[4]": {"system": "CX3CR1+ Mφ in PLN and MLN", "assay": "Oral gavage; frequency of CX3CR1+ Mφ in PLN and MLN by flow cytometry", "format": "in vivo, mouse", "description": "as §1\nas §2, with “Flow cytometry analysis was done with the FlowJo Version 9.7.6 (Tree Star, Ashland, Oreg,).” left out"}, "[5]": {"system": "siLP CX3CR1hi Mφ and CD103+ DCs", "assay": "Oral gavage; IL10, TNF-α and CX3CR1 expression in siLP CX3CR1hi Mφ and CD103+ DCs by flow cytometry", "format": "in vivo, mouse", "description": "as §1, §2\nas §4, with “kit. […]” for “kit.”"}, "[6]": {"conditions": "CX3CR1gfp/+ mice, oral gavage, 24 hours after feeding, vs vehicle"}, "[7]": {"conditions": "NOD mice, 10 μg at 9th and 10th week, two weeks post treatment"}}, "data": [{"smiles": "COc1cc(CNC(=O)CCCC/C=C/C(C)C)ccc1O", "note": "[CP, Capsaicin]", "values": [{"measurement": "frequency and number of CX3CR1lo cells in siLP", "setting": "siLP CX3CR1hi Mφ; CX3CR1gfp/+ mice, oral gavage 10 μg, 24 hours, vs vehicle", "value": "did not affect the frequency and number"}, {"measurement": "frequency of CX3CR1hi Mφ in siLP", "setting": "siLP CX3CR1hi Mφ; [6]", "value": "significantly increased the frequency"}, {"measurement": "frequency of CX3CR1hi Mφ in siLP", "setting": "siLP CX3CR1hi Mφ; CX3CR1gfp/gfp mice (lack functional CX3CR1), oral gavage 10 μg, 24 h", "value": "no changes in the frequency"}, {"measurement": "frequency of CX3CR1hi Mφ in siLP", "setting": "siLP CX3CR1hi Mφ; NOD mice, oral administration", "value": "increases the frequency"}, {"measurement": "level of IL27-p28 in the MNPs", "setting": "IL27-p28", "value": "five fold increase"}, {"measurement": "protection from T1D by transferred CD4+ T cells", "setting": "[1]", "value": "significantly higher protection from T1D"}, {"measurement": "expression of IL10 in CD4+ T cells", "setting": "[2]; MNPs sorted 24 hours after treatment, co-culture 1:1, four days", "value": "significant increase in the expression of IL10"}, {"measurement": "induction of CD4+ T cells expressing both IL10 and IFN-γ (Tr1)", "setting": "[2]; MNPs sorted 24 hours after treatment, co-culture 1:1, four days, IL27RA+/+ T cells", "value": "significant increase in the induction"}, {"measurement": "increase in frequency of CD4+ IL10+ IFN-γ+ T cells", "setting": "[2]; T cells derived from IL27RA−/− mice", "value": "completely abrogated"}, {"measurement": "elicitation of Tr1 cells in PLN", "setting": "[3]; CX3CR1gfp/gfp mice (no functional CX3CR1)", "value": "does not elicit Tr1 cells"}, {"measurement": "Tr1 cell elicitation by IL27RA genotype", "setting": "[3]; IL27RA −/−, +/− and +/+ mice", "value": "gene dose-dependence of Tr1 cell elicitation"}, {"measurement": "dependence of elicited Tr1 cells on IL27 signaling", "setting": "[3]; IL27RA+/+ vs IL27RA−/− mice, PLN", "value": "require the presence of functional IL27-IL27R signaling"}, {"measurement": "frequency of Tr1 cells in PLN", "setting": "[3]; [7]", "value": "expansion of Tr1 cells"}, {"measurement": "frequency of Tr1 cells in siLP", "setting": "[3]; [7]", "value": "expansion of Tr1 cells"}, {"measurement": "frequency of IL17A+ CD4+ T cells in the PLN", "setting": "[3]; NOD mice, oral administration", "value": "significant decrease in the frequency"}, {"measurement": "frequency of CX3CR1+ Mφ in the MLN", "setting": "[4]; 3 days after feeding 10 μg", "value": "but not in MLN"}, {"measurement": "frequency of CX3CR1+ Mφ in the PLN", "setting": "[4]; 3 days after feeding 10 μg", "value": "significant VR1-dependent increase in the frequency"}, {"measurement": "frequency of CX3CR1+ Mφ in the PLN", "setting": "[4]; NOD mice, 3 days post oral gavage 10 μg", "value": "significant increase in the frequency"}, {"measurement": "production of TNF-α in CX3CR1hi Mφ", "setting": "[5]; 24 hours after treatment, vs controls", "value": "decreased"}, {"measurement": "expression of CX3CR1 on CX3CR1hi Mφ", "setting": "[5]; CX3CR1gfp/+ mice, vs vehicle", "value": "significantly increased expression of CX3CR1"}, {"measurement": "IL10 production in CD103+ DCs", "setting": "[5]; IL10-GFP reporter mice, oral gavage 10 μg, 24 hrs", "value": "modest but statistically significant increase in IL10 production"}, {"measurement": "production of IL10 in CX3CR1hi Mφ", "setting": "[5]; IL10 GFP-reporter mice, 24 hours after treatment, vs controls", "value": "significant increase in the production of IL10"}]}, {"smiles": "O=C(Nc1cccnc1)N1CCC(Cc2cccc(Oc3ccc(C(F)(F)F)cn3)c2)CC1", "note": "[PF3845]", "values": [{"measurement": "frequency of CX3CR1hi Mφ in siLP", "setting": "siLP CX3CR1hi Mφ; [6]", "value": "increase in the frequency"}]}]}
